{"source": "patent US8138189B2", "about": "“Substituted benzene compounds as modulators of the glucocorticoid receptor” (Hoffman-La Roche Inc., priority 2009, dated 2012)", "key": {"[1]": {"target": "T1, full length human recombinant glucocorticoid receptor (Homo sapiens, UniProt P04150)", "T1 construct": "partially purified full length human recombinant glucocorticoid receptor; purchased Panvera/Invitrogen PV4302", "T1 sequence (P04150 1-777)": "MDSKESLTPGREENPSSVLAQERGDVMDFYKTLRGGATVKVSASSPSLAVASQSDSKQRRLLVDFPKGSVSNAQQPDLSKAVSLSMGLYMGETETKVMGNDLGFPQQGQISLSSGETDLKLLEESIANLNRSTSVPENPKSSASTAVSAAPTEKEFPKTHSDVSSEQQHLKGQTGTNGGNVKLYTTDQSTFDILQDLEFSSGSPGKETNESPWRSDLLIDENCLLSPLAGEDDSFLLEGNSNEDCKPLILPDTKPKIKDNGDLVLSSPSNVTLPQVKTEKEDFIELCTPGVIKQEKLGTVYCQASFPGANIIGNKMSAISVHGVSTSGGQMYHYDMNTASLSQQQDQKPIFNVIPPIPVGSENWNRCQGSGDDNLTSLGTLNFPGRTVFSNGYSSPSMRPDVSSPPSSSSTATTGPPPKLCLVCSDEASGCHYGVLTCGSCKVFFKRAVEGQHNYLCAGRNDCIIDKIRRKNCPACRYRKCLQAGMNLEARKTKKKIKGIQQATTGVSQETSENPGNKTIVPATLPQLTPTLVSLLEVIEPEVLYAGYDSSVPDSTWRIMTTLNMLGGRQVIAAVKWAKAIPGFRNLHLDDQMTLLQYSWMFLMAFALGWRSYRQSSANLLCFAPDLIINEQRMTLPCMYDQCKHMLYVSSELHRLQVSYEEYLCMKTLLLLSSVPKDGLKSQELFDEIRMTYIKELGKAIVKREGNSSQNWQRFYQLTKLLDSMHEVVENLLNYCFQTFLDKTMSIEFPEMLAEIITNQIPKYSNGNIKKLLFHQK", "assay": "Glucocorticoid Receptor Binding Assay (fluorescence polarization competitor assay, Fluormone GS Far Red tracer)", "outline": "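Partially purified full-length recombinant human GR with a stabilizing coactivator peptide was incubated with Fluormone GS Far Red tracer and serially diluted compound for 3 h at 22 °C in the dark, pH 7.4. Fluorescence polarization was read at 610-660 nm. IC50 came from sigmoidal fitting, and Ki from Cheng-Prusoff.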"}, "[2]": {"system": "normal volunteers", "details": "acute; cited from earlier work"}, "[3]": {"system": "Cushing's patients", "details": "chronic; cited from earlier work"}, "[4]": {"system": "ob/ob mice", "details": "cited from earlier work"}, "[5]": {"system": "db/db mice", "details": "cited from earlier work"}, "[6]": {"system": "Hypothalamus-Pituitary gland-Adrenal gland (HPA) axis", "details": "cited from earlier work"}}}
{"smiles": "Cc1cc([C@](O)([C@H](C)c2ccc(Oc3ccc(C(=O)O)cn3)cc2Cl)C(F)(F)F)cn(C)c1=O", "note": "[Example 247, 6-{3-Chloro-4-[(1R,2R)-2-(1,5-dimethyl-6-oxo-1,6-dihydro-pyridin-3-yl)-3,3,3-trifluoro-2-hydroxy-1-methyl-propyl]-phenoxy}-nicotinic acid]", "values": [{"measurement": "Ki", "setting": "[1]", "value": 14.8, "unit": "nM"}]}
{"smiles": "Cc1cc([C@@](O)([C@@H](C)c2ccc(Oc3ccc(C(=O)O)c(F)c3)cc2Cl)C(F)(F)F)cn(C)c1=O", "note": "[Example 248, 4-{3-Chloro-4-[(1S,2S)-2-(1,5-dimethyl-6-oxo-1,6-dihydro-pyridin-3-yl)-3,3,3-trifluoro-2-hydroxy-1-methyl-propyl]-phenoxy}-2-fluoro-benzoic acid]", "values": [{"measurement": "Ki", "setting": "[1]", "value": 0.5, "unit": "nM"}]}
{"smiles": "Cc1cc([C@](O)([C@H](C)c2ccc(Oc3ccc(C(=O)O)c(F)c3)cc2Cl)C(F)(F)F)cn(C)c1=O", "note": "[Example 249, 4-{3-Chloro-4-[(1R,2R)-2-(1,5-dimethyl-6-oxo-1,6-dihydro-pyridin-3-yl)-3,3,3-trifluoro-2-hydroxy-1-methyl-propyl]-phenoxy}-2-fluoro-benzoic acid]", "values": [{"measurement": "Ki", "setting": "[1]", "value": 4.2, "unit": "nM"}]}
{"smiles": "CC#C[C@]1(O)CC[C@H]2[C@@H]3CCC4=CC(=O)CCC4=C3[C@@H](c3ccc(N(C)C)cc3)C[C@@]21C", "note": "[RU486/mifepristone, mifepristone]", "values": [{"measurement": "fasting plasma glucose", "setting": "[2]", "value": "decrease of fasting plasma glucose"}, {"measurement": "plasmatic HbA1c", "setting": "[3]", "value": "decrease of plasmatic HbA1c"}, {"measurement": "fasting plasma glucose", "setting": "[4]", "value": "normalizes fasting plasma glucose"}, {"measurement": "activity of gluconeogenic enzymes", "setting": "[5]", "value": "normalizes"}, {"measurement": "effect on HPA axis / endogenous corticosteroids circulating in the blood", "setting": "[6]; feed-back mechanism", "value": "increase of endogenous corticosteroids circulating in the blood"}, {"measurement": "adrenal insufficiency symptoms", "setting": "[6]; long term treatment (up to 1 year)", "value": "induces some adrenal insufficiency symptoms"}]}
